This note sets out measurements from ChEMBL document CHEMBL1201862, “PubChem BioAssay data set” (2004).

For assay [1], the system named is HEK293. Briefly: cells. Conditions: Homo sapiens.
A short description of assay [2]: toxicity toward HepG2 liver cells – cell-based, plate reader, cherry-pick, antagonist series, cytotoxicity control, dose response (AID 743416). The assay is classed as functional.
A short description of assay [3]: blockers of bursicon-stimulated LGR2 cAMP reporter – cell-based, HEK293, CRE-luciferase reporter, cherry pick, set 2, dose response (AID 743343).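 Note: transfected cells were stimulated with diluted bursicon conditioned medium after compound addition.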 Format: functional.
Assay [4] in a line: microbe, parasite or virus in culture. The assay is classed as functional. The note with it: Mycobacterium tuberculosis.
The subject of assay [5] is INS1. The assay is described as follows: INS-1E survival protection against cytokine death – cell-based, luminescence, retest, dose response (AID 449756).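 Note: cell death triggered by IL-1 beta plus TNF-alpha plus IFN-gamma mixture; protective hits raise ATP signal compared with cytokine alone wells.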 Format: functional. Conditions: Rattus norvegicus.
A short description of assay [6]: reduced cellular PGC1a acetyl-lysine signal – cell-based, cherry-picked samples, dose response (AID 720514).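 Note: potency may reflect raised or lowered acetylation signal.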 Format: functional.
Assay [7] in a line: viability loss in HEK293 cells – cell-based, plate reader, cherry-picked samples, cytotoxicity control, dose response (AID 743446). The assay is classed as functional.
A short description of assay [8]: viability loss in THP-1 monocytes – THP-1 cells, cytotoxicity control for Vif-APOBEC3G degradation inhibitor project, dose response (AID 1117359). The assay is classed as functional. The note with it: THP-1.
The nature of assay [9]: blockade of melanocortin 4 receptor signaling – cell-based, plate reader, cherry pick, counter-screen for LGR2 antagonist project, dose response (AID 743444).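 Note: transfected HEK 293 cells stimulated with alpha-MSH peptide; potency of inhibitors of the alpha-MSH evoked signal.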 The assay is classed as functional.
For assay [10], the system named is HEK293. The assay is described as follows: cells. The note with it: Homo sapiens. The source holds these as a separate data set.
Assay [11] concerns the target Heat shock protein HSP 90-alpha (Homo sapiens, UniProt P07900). The assay is described as follows: Luminescence-based dose response biochemical high throughput screening assay for inhibitors of the Heat Shock Protein 90 (HSP90). [Related pubchem assays: 1831 (Summary AID.), 1846 (Confirmation screen.), 1789 (Primary screen.)].
Assay [12] in a line: HEK293 Cytotoxicity Assay Measured in Cell-Based System Using Plate Reader - 7071-01_Inhibitor_Dose_CherryPick_Activity_Set2. Format: functional.
For assay [13], the system named is HEK293. Briefly: viability loss in HEK293T cells – cell-based, ATP luminescence, cherry-pick samples, cytotoxicity control, dose response (AID 687005).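 Note: cells exposed to compound for 48 hours.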 Format: functional. Conditions: Homo sapiens.
For assay [14], the target named is Fructose-bisphosphate aldolase (Mycobacterium tuberculosis, UniProt P9WQA3). The assay is described as follows: Fluorescence-based biochemical high throughput dose response assay for inhibitors of the fructose-bisphosphate aldolase (FBA) of M. tuberculosis. The assay is classed as functional.
Fructose-bisphosphate aldolase, sequence (P9WQA3 whole entry): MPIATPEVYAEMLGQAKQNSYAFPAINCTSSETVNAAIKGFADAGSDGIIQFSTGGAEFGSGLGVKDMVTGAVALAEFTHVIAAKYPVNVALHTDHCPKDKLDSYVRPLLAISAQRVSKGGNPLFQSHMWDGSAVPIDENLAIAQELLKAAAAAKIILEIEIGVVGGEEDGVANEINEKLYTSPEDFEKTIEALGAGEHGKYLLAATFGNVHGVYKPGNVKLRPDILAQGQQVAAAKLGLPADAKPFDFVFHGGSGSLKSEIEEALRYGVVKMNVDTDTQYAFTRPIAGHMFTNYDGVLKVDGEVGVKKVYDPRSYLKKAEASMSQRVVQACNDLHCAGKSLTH
The target of assay [15] is Beta-galactosidase (Escherichia coli, UniProt Q8VNN2). Briefly: Dose response counterscreen for EBI2 assay utilizing the enzyme, b-galactosidase. The assay is classed as functional.
Beta-galactosidase, sequence (Q8VNN2 whole entry): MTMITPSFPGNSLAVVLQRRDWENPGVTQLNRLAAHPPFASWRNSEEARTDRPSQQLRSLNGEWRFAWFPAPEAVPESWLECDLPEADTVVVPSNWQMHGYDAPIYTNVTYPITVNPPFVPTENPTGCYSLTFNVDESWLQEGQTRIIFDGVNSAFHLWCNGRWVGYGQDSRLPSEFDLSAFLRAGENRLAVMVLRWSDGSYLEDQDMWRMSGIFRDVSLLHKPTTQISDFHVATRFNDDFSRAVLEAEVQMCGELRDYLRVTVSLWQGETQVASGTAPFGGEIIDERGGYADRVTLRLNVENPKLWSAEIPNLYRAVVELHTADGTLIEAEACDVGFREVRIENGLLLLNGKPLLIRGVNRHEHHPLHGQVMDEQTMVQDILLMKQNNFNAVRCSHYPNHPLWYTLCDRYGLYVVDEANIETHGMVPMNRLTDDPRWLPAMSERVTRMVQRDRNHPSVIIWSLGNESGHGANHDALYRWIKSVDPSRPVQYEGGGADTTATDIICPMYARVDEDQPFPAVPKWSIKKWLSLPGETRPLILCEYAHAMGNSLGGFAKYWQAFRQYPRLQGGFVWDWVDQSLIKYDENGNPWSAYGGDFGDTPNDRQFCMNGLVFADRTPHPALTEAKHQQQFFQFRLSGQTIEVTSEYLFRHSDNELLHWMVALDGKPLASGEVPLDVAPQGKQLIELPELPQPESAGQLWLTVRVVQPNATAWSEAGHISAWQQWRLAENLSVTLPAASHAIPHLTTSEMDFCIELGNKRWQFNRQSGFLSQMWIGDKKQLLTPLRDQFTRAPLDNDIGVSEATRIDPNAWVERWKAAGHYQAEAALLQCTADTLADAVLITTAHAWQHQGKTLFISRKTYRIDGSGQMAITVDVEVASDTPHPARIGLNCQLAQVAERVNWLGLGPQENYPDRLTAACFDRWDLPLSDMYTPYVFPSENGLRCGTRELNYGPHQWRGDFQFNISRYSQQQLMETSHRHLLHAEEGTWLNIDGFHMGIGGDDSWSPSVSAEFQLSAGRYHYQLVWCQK
Assay [16] addresses Prothrombin (Bos taurus, UniProt P00735). Briefly: thrombin protease inhibitors – biochemical, fluorescence polarization, uHTS hits, dose response (AID 602369). Format: functional.
The target of assay [17] is 72 kDa type IV collagenase (Homo sapiens, UniProt P08253). Briefly: Dose Response validation of uHTS RPN11 inhibitor hits using a MMP-2 Fluorescence assay. Format: functional.
72 kDa type IV collagenase, sequence (P08253 whole entry): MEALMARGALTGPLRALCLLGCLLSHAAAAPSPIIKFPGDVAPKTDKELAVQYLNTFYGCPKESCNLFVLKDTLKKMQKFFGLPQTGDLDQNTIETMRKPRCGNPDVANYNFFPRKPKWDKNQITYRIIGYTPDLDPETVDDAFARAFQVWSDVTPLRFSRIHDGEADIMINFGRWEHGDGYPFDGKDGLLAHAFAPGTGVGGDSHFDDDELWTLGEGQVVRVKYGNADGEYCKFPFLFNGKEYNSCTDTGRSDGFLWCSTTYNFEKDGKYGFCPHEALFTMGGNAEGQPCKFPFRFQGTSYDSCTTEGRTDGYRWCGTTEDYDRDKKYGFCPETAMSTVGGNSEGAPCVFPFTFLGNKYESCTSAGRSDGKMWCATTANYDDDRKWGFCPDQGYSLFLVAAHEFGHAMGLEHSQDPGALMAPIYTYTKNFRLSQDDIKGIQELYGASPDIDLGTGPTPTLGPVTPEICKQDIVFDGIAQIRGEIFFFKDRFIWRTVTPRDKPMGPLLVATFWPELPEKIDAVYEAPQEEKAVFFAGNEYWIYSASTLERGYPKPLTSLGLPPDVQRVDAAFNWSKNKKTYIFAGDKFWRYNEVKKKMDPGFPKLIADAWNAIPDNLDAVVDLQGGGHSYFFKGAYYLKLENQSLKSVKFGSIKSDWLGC
The target of assay [18] is T1, Sentrin-specific protease 1 (Homo sapiens, UniProt Q9P0U3).
T1 sequence (Q9P0U3 whole entry): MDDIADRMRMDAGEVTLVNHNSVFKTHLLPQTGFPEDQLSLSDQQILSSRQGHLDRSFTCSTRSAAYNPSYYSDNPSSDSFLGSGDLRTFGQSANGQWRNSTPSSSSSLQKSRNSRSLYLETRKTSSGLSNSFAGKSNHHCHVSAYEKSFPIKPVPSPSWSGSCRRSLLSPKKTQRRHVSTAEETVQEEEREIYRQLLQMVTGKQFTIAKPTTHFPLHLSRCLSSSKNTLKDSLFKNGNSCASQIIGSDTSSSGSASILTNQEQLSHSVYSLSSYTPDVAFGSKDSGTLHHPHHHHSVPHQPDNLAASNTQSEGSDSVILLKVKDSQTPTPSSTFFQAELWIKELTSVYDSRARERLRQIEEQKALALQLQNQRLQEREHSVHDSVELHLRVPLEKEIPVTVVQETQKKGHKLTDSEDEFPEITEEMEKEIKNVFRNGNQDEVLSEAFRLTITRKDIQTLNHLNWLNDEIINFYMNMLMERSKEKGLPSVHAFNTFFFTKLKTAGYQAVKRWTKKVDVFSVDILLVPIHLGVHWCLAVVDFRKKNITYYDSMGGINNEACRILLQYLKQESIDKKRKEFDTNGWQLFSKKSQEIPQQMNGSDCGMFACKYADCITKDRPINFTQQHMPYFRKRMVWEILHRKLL
Briefly: SENP1 catalytic domain blockers, concentration series – biochemical, kinetic FRET, dose response (AID 651697). Format: functional. The note with it: read-out: IC50_Mean.

The target in assay [19] is 26S proteasome non-ATPase regulatory subunit 14 (Homo sapiens, UniProt O00487). Briefly: inhibition of proteasome subunit RPN11 – biochemical, fluorescence polarization, uHTS hits, confirmation (AID 602368). The assay is classed as functional.
26S proteasome non-ATPase regulatory subunit 14, sequence (O00487 whole entry, the tested form may be a part): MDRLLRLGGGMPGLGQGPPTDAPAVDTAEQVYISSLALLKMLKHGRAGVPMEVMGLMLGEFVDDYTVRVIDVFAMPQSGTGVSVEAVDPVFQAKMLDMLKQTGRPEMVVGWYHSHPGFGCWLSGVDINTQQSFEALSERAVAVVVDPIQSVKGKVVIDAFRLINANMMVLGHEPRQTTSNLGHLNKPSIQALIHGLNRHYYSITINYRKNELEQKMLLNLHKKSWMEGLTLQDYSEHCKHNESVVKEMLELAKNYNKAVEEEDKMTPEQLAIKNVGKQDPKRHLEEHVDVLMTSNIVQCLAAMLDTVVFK
Assay [20] concerns the target T1, Sentrin-specific protease 1. The assay is described as follows: Dose response confirmation of small molecule inhibitors of the catalytic domain of the SUMO protease, SENP1 in a FRET assay. The assay is classed as functional. Conditions: read-out: IC50_Mean.
A short description of assay [21]: viability loss in HepG2 hepatoma cells – cell-based, ATP luminescence, cherry-pick, activator set 2, cytotoxicity control, dose response (AID 1053143). Format: functional.
Assay [22] addresses T2, Zinc finger protein mex-5 (Caenorhabditis elegans, UniProt Q9XUB2).
T2 sequence (Q9XUB2 whole entry): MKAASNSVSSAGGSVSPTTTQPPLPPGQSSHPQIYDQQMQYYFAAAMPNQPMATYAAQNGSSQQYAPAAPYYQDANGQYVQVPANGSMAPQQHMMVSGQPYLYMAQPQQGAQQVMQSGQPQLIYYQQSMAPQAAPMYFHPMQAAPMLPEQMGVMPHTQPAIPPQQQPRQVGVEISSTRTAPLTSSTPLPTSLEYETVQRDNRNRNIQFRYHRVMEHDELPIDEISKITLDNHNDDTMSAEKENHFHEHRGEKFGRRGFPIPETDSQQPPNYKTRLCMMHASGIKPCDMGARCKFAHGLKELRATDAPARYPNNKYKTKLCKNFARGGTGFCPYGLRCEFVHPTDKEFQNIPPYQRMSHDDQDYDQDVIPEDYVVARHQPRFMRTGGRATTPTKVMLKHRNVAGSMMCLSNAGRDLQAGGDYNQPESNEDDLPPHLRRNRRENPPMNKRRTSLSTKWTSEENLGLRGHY
The assay is described as follows: potency of MEX-5 RNA-binding blockers – biochemical, C. elegans, fluorescence polarization, dose response (AID 1960).

Assay [23] addresses T3, RNA-binding protein pos-1 (Caenorhabditis elegans, UniProt G5EF15).
T3 sequence (G5EF15 whole entry): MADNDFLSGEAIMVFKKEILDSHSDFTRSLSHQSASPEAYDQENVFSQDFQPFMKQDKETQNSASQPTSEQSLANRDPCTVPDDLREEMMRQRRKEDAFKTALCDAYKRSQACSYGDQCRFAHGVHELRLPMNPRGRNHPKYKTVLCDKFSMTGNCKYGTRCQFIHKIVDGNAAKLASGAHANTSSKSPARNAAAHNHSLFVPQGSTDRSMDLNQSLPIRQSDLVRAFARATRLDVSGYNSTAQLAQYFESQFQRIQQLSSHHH
The assay is described as follows: disruptors of C. elegans POS-1 RNA interaction – biochemical, fluorescence polarization, dose response (AID 1964).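 Note: purified POS-1 fused to maltose binding protein made in E. coli; potency of compounds blocking POS-1 binding to fluorescent RNA.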

Assay [24] concerns the target T4, Endoribonuclease toxin MazF (Escherichia coli K-12, UniProt P0AE70).
T4 sequence (P0AE70 whole entry): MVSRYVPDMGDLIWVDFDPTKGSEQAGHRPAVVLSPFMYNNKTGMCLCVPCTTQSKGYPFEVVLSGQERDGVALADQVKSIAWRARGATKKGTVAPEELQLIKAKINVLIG
Briefly: activation of MazEF endoribonuclease cleavage – biochemical, fluorescence, single-stranded RNA substrate, uHTS hits, dose response (AID 588481). The assay is classed as functional.

Assay [25] deals with T4, Endoribonuclease toxin MazF. The assay is described as follows: substrate-only fluorescence increase artefacts – biochemical, single-stranded RNase substrate, counter-screen for MazEF activator project, dose response (AID 588502). The assay is classed as functional.
Assay [26] has as its target T5, Streptokinase A (Streptococcus pyogenes serotype M1, UniProt P10520).
T5 sequence (P10520 whole entry): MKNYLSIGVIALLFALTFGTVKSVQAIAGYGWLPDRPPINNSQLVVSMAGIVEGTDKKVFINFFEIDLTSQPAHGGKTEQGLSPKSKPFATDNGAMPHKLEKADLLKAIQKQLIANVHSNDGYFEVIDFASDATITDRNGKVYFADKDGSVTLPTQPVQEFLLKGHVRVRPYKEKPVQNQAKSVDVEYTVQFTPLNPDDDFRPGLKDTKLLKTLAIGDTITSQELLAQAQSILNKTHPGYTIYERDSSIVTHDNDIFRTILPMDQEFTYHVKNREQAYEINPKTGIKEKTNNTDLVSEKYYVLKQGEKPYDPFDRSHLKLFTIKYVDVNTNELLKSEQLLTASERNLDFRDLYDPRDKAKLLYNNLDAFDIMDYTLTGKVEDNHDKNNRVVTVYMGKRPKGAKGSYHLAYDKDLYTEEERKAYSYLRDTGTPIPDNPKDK
The assay is described as follows: viability-normalized secreted streptokinase activity reduction – plasminogen activation absorbance, OD405, dose response (AID 1914).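 Note: secreted streptokinase activity via plasminogen activation per viability signal from cell pellet.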 Format: functional, Streptococcus pyogenes M1 GAS.

Assay [27] deals with Streptococcus. The assay is described as follows: GAS UMAA2166 growth inhibition – luminescence, BacTiterGlo, counter-screen for streptokinase expression inhibitor project, dose response (AID 1915).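 Note: potency for reduction of bacterial viability or growth.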 Format: functional, organism-based.

Active and inactive are the calls of the source. Where only a bound is given, the exact number is not on record here.

In the case of `O=C(Cn1ncc(Cl)c(Cl)c1=O)c1ccc2c(c1)OCCO2`, the EC50 in [1] and in assay [10] was > 59.5 µM (inactive) in each case. Further, the AC50 in assay [2] was 21.3 µM (active); in assay [3], 28.4 µM (active); in assay [5], > 120 µM (inactive); in assay [6] it was 15.4 µM (active); in [7], 17 µM (active); in assay [9], 36.5 µM (active). For the same compound, the CC50 is 13.8 µM (active) in assay [4] and 9.67 µM (active) in assay [8].

On to `Nc1c(-c2ccccc2)cnn1-c1ccc(C(=O)O)cc1`, for which the IC50 in assay [11] is 5.93 µM (active).

Turning to `COc1ccccc1CNC(=O)C[C@@H]1CC[C@@H]2[C@H](COc3ccc(NC(C)=O)cc3C(=O)N2C)O1`, the half-maximal activity concentration (AC50) in [12] and in [13] was 37.8 µM (active) each time.

For `Cc1nc2c(cc1N)nc(C)n2Cc1ccccc1`, in assay [14], the IC50 is 0.653 µM (active).

Take `CCOC(=O)c1ccc(/N=c2\sc(C(=O)OC)cc(=O)n2CCCN2CCOCC2)cc1`: in assay [15], the IC50 was > 80 µM (inactive). Moreover, in assay [4], the CC50 was > 40 µM (active).

`COc1cccc(NC2=Nc3cccc4cccc2c34)c1`: the IC50 is 37.8 µM (active) in assay [16]; > 100 µM (inactive) in assay [17]; 27.7 µM (inactive) in assay [18]; 27.6 µM (active) in assay [19]; 41.3 µM (inactive) in [20].

Regarding `Cc1ncsc1C(=O)Nc1nc2c(s1)CC(C)CC2` (centres undefined), in assay [21], the AC50 was > 52 µM (inactive).

In the case of `COC(=O)/C=C1\C(=O)N(c2nc3ccccc3s2)C(=S)N1c1ccc(F)cc1`, the concentration for a half-maximal effect (EC50) in assay [22] is > 300 µM (not active); in [23], > 300 µM (not active); in [24], > 99 µM (inactive); in assay [25], > 99 µM (inactive); in assay [26], > 150 µM (not active); in assay [27], > 150 µM (not active). Also, in assay [15], the IC50 is > 80 µM (inactive).
